Measurements: PubChem BioAssay AID1259411 (Chemical Carcinogenesis Research Information System (CCRIS), 2018)
Activity calls are given as the source filed them. How the calls were made is not given here.

Tested on: rodent carcinogenicity bioassays, tumor incidence
Test: CCRIS carcinogenicity studies
Source text: The CCRIS database contains chemical records with carcinogenicity, mutagenicity, tumor promotion, and tumor inhibition test results. It was developed by the National Cancer Institute (NCI). Data are derived from studies cited in primary journals, current awareness tools, NCI reports, and other sources. Test results have been reviewed by experts in carcinogenesis and mutagenesis.
CCRIS provides historical information from the years 1985 - 2011. It is no longer updated.
This is an archive assay for CCRIS carcinogenicity studies.

COc1ccc(N)c(OC)c1
carcinogen call (Species: MOUSE, Strain/Sex: B6C3F1/FEMALE, Route: ORAL, Dose: 0, 2500, 5000 PPM IN DIET, Dose: 0, 2500, 5000 PPM IN DIET): inactive; negative | carcinogen call (Species: MOUSE, Strain/Sex: B6C3F1/MALE, Route: ORAL, Dose: 0, 2500, 5000 PPM IN DIET, Dose: 0, 2500, 5000 PPM IN DIET): inactive; negative | carcinogen call (Species: RAT, Strain/Sex: F344/FEMALE, Route: ORAL, Dose: 0, 1500, 3000 PPM IN DIET, Dose: 0, 1500, 3000 PPM IN DIET): inactive; negative | carcinogen call (Species: RAT, Strain/Sex: F344/MALE, Route: ORAL, Dose: 0, 1500, 3000 PPM IN DIET, Dose: 0, 1500, 3000 PPM IN DIET): inactive; negative

CCC(C)[N+](=O)[O-] (stereo unspecified)
carcinogen call (Species: RAT, Strain/Sex: F344/MALE, Route: GAVAGE, Dose: 0, 2 MMOL/KG BW 1/WK FOR 50 WK (STUDY DURATION: 83 WK), Tumor Site: Type of Lesion: LIVER: CARCINOMA): active; positive

Nc1ccc(N)c([N+](=O)[O-])c1
carcinogen call (Species: MOUSE, Strain/Sex: B6C3F1/FEMALE, Route: ORAL, Dose: 0, 2200, 4400 PPM IN DIET, Dose: 0, 2200, 4400 PPM IN DIET, Tumor Site: Type of Lesion: LIVER: HEPATOCELLULAR ADENOMA OR CARCINOMA): active; positive | carcinogen call (Species: MOUSE, Strain/Sex: B6C3F1/MALE, Route: ORAL, Dose: 0, 2200, 4400 PPM IN DIET, Dose: 0, 2200, 4400 PPM IN DIET): inactive; negative | carcinogen call (Species: RAT, Strain/Sex: F344/FEMALE, Route: ORAL, Dose: 0, 1100, 2200 PPM IN DIET, Dose: 0, 1100, 2200 PPM IN DIET): inactive; negative | carcinogen call (Species: RAT, Strain/Sex: F344/MALE, Route: ORAL, Dose: 0, 550, 1100 PPM IN DIET, Dose: 0, 550, 1100 PPM IN DIET): inactive; negative

c1cc2ccc3ccc4ccc5cccc6c(c1)c2c3c4c56
carcinogen call (Species: RAT, Strain/Sex: OSBORNE-MENDEL/FEMALE, Route: LUNG IMPLANT, Dose: 0, 0.16, 0.83, 4.15 MG IN BEESWAX/TRIOCTANOIN (STUDY DURATION: LIFETIME), Dose: 0, 0.16, 0.83, 4.15 MG IN BEESWAX/TRIOCTANOIN (STUDY DURATION: LIFETIME)): inactive; negative

OCC(O)CCl (stereo unspecified)
carcinogen call (Species: Rat, Strain/Sex: Sprague-Dawley/Female, Route: Oral, Dose: 0, 25, 100, 400 ppm in drinking water for 2 yr (Study duration: 104 wk), Dose: 0, 25, 100, 400 ppm in drinking water for 2 yr (Study duration: 104 wk), Tumor Site: Type of Lesion: Kidney: Renal tubule adenoma or carcinoma): active; positive | carcinogen call (Species: Rat, Strain/Sex: Sprague-Dawley/Male, Route: Oral, Dose: 0, 25, 100, 400 ppm in drinking water for 2 yr (Study duration: 100 wk), Dose: 0, 25, 100, 400 ppm in drinking water for 2 yr (Study duration: 100 wk), Tumor Site: Type of Lesion: Kidney: Renal tubule adenoma or carcinoma, Testes: Leydig cell tumor): active; positive

C#CCOc1ccc(CCNC(=O)C(OCC#C)c2ccc(Cl)cc2)cc1OC (stereo unspecified)
carcinogen call (Species: Mouse, Strain/Sex: C57BL/10J CD-1 / Female (50/Group), Route: Oral, Dose: 0, 13.2, 67.8, 284.6 mg/kg/day of 96.5% mandipropamid in diet for 80 wk, study duration 80 wk, Dose: 0, 13.2, 67.8, 284.6 mg/kg/day of 96.5% mandipropamid in diet for 80 wk, study duration 80 wk): inactive; negative | carcinogen call (Species: Mouse, Strain/Sex: C57BL/10J CD-1 / Male (50/Group), Route: Oral, Dose: 0, 10.6, 55.2, 222.7 mg/kg/day of 96.5% mandipropamid in diet for 80 wk, study duration 80 wk, Dose: 0, 10.6, 55.2, 222.7 mg/kg/day of 96.5% mandipropamid in diet for 80 wk, study duration 80 wk): inactive; negative | carcinogen call (Species: Rat, Strain/Sex: Alpk:AP SD (Wistar-derived)/Female (52/Group), Route: Oral, Dose: 0, 3.5, 17.6, 69.7 mg/kg/day of 96.5% mandipropamid in diet for 104 wk, study duration 104 wk, Dose: 0, 3.5, 17.6, 69.7 mg/kg/day of 96.5% mandipropamid in diet for 104 wk, study duration 104 wk): inactive; negative | carcinogen call (Species: Rat, Strain/Sex: Alpk:AP SD (Wistar-derived)/Male (52/Group), Route: Oral, Dose: 0, 3.0, 15.2, 61.3 mg/kg/day of 96.5% mandipropamid in diet for 104 wk, study duration 104 wk, Dose: 0, 3.0, 15.2, 61.3 mg/kg/day of 96.5% mandipropamid in diet for 104 wk, study duration 104 wk): inactive; negative

FC(F)(F)C(Cl)Cl
carcinogen call (Species: RAT, Strain/Sex: CRL:CDBR/FEMALE, Route: INHALATION, Dose: 0, 300, 1000, 5000 PPM 6 HR/D 5 D/WK FOR 2 YR (STUDY DURATION: 2 YR), Dose: 0, 300, 1000, 5000 PPM 6 HR/D 5 D/WK FOR 2 YR (STUDY DURATION: 2 YR), Tumor Site: Type of Lesion: LIVER: ADENOMA, CHOLANGIOFIBROMA): active; positive | carcinogen call (Species: RAT, Strain/Sex: CRL:CDBR/MALE, Route: INHALATION, Dose: 0, 300, 1000, 5000 PPM 6 HR/D 5 D/WK FOR 2 YR (STUDY DURATION: 2 YR), Dose: 0, 300, 1000, 5000 PPM 6 HR/D 5 D/WK FOR 2 YR (STUDY DURATION: 2 YR), Tumor Site: Type of Lesion: LIVER: ADENOMA, PANCREAS: ADENOMA, TESTES: ADENOMA, Tumor Site: Type of Lesion: LIVER: ADENOMA, PANCREAS: ADENOMA, TESTES: ADENOMA): active; positive

CC1OCCN1N=O (stereo unspecified)
carcinogen call (Species: RAT, Strain/Sex: F344/FEMALE, Route: ORAL, Dose: 40 MG/L IN DRINKING WATER FOR 50 WK, Tumor Site: Type of Lesion: LIVER: HEPATOCELLULAR CARCINOMA, HEMANGIOENDOTHELIAL SARCOMA): active; positive

CN(N=O)C(=O)Oc1cccc2ccccc12
carcinogen call (Species: MOUSE, Strain/Sex: CFLP/FEMALE, Route: DERMAL, Dose: 0, 12.5, 50, 200 UG IN ACETONE 2 D/WK FOR 104 WK (STUDY DURATION: 24 MO), Dose: 0, 12.5, 50, 200 UG IN ACETONE 2 D/WK FOR 104 WK (STUDY DURATION: 24 MO), Tumor Site: Type of Lesion: SKIN: CARCINOMA): active; positive

CCCCCCCCCN(C)N=O
carcinogen call (Species: RAT, Strain/Sex: F344/MALE, Route: GAVAGE, Dose: 0, 100 MG/ML IN CORN OIL 2/WK FOR 30 WK, STUDY DURATION: 60 WK, Dose: 0, 100 MG/ML IN CORN OIL 2/WK FOR 30 WK, STUDY DURATION: 60 WK, Tumor Site: Type of Lesion: LUNG: ADENOCARCINOMA, NASAL CAVITY: CARCINOMA, PAPILLOMA, LIVER: CHOLANGIOCARCINOMA, HEPATOCELLULAR TUMOR, Tumor Site: Type of Lesion: LUNG: ADENOCARCINOMA, NASAL CAVITY: CARCINOMA, PAPILLOMA, LIVER: CHOLANGIOCARCINOMA, HEPATOCELLULAR TUMOR): active; positive
